In patent US6632981B1, “DNA sequences encoding polypeptides having beta-1,3-glucanase activity” (Novartis Finance Corporation, priority 1988, dated 2003):

Columns and labels:
[1] = tested on: cucumber chitinase protein; test: Cucumber chitinase ELISA in transgenic plants carrying cucumber chitinase genomic constructs after leaf treatment; type: in vivo, tobacco; design: key: —: Indicates that sample has no detectable level of chitinase protein
Method: Once the transgenic plants are transferred to soil, they are grown 4-5 weeks before treatment. The following solutions are applied to the leaves with sterile paintbrushes:
3. Methyl benzo-1,2,3-thiadiazole-7-carboxylate. The solution is made by resuspending a wettable powder containing a formulation of the chemical with 25% active ingredient in sterile water at a concentration of 1 mg/ml.
4. Methyl 2,6-dichloroisonicotinate, prepared as above. Alternatively, 30 ul of 10 mM sodium phosphate buffer, pH 7.0, or 30 ul of the same buffer containing tobacco mosaic virus (50-100 pfu/30 ul) is applied to the leaves which have been sprinkled with carborundum. The buffers are distributed over the whole treated leaf by gentle rubbing.
The plants are allowed to continue to grow for seven days. The treated leaves are then harvested, frozen in liquid nitrogen and stored at −80° C. until they are assayed.
Frozen leaf tissue is ground in a mortar with a pestle in the presence of liquid nitrogen to produce a fine powder. 0.33 g of each tissue sample is added to 1 ml extraction buffer (50 mM Tris-HCl, pH 8.5, 0.2M 2-mercaptoethanol, 2 mM phenyl methyl sulfonyl fluoride, 2 mM benzamidine, 10 mM epsilon-aminocaproic acid, 1 mM leueptine) and the sample homogenized for one minute with an Ultra Turrax Mixer (shaft #S25N-8G, Tekmar Co. Cincinnati, Ohio). The samples are then centrifuged at 48,000×g for fifteen minutes at 4° C. and the supernatant removed from the pelleted material. The extracts are diluted at least 1:50 in ELISA diluent (101 mM sodium phosphate, pH 7.4, 140 mM sodium chloride, 0.05% Tween 20, 0.02% sodium azide, 1% BSA).
A microtiter plate is coated with monoclonal antibody specific to the cucumber chitinase protein at 2 ug/ml in borate-buffered saline (100 mM boric acid, 25mM sodium borate, 75 mM sodium chloride; pH 8.5) using 50 ul per well. The plate is incubated overnight at 4° C. The plate is washed with ELISA wash buffer (10 mM Tris-HCl, pH 8.0, 0.05% Tween 20, 3 mM sodium azide) and BSA blocking solution (10 mM sodium phosphate, pH 7.4, 140 mM sodium chloride, 0.02% sodium azide, 1% BSA) is added to completely cover each well. Incubation is for at least 30 minutes at room temperature.
The microtiter plate is washed with ELISA wash buffer and 50 ul of extract is added to the appropriate well. 50 ul of each of 10 chitinase protein standards (ranging from 0 ng/ml to 31.64 ng/ml) was also added to the appropriate well and the plate is incubated for two hours at 4° C. The plate is washed with ELISA wash buffer and 50 ul of rabbit polyclonal antibody to the cucumber chitainase protein (diluted 1:15,000 in ELISA diluent) is added to the well and incubated for one hour at 37° C. After washing with ELISA wash buffer, 50 ul of goat anti-rabbit conjugated to alkaline phosphatase (1:500 in ELISA diluent) is added to each well and incubated at 37° C. for one hour. The plate is then washed and 50 ul alkaline phosphatase substrate solution (0.6 mg/ml p-nitrophenyl phosphate in 0.5 mM magnesium chloride and 10% diethanolamine) is added to each well. After a 30 minute incubation at room temperature, 50 ul of 3N sodium hydroxide is added to each well to stop the reaction.
The plate is read at 405 nm and 492 nm on an HP Genenchem ELISA plate reader. The output values are expressed as A(405 nm)-A(492 nm)−0.092 to allow for correction of p-nitrophenyl phosphate as substrate. The chitinase standards for each plate are graphed logarithmically. The amount of chitinase protein in each sample is determined from the standard curve. If the amount of chitinase in any sample is close to the upper limit of the curve, the sample is assayed again at a greater dilution. Final results are expressed in the table below in ug chitinase per gram tissue.

[2] = tested on: chemically regulatable chimeric genes coding for GUS, AHAS or BT; test: Primer extension assay for mRNA of chemically regulatable chimeric genes; type: in vivo; settings: callus or regenerated plant material from transgenic plants; level proportional to amount of regulator applied
Method: 50 g of total RNA is lyophilized in a 500 l Eppendorf tube. The RNA is resuspended in 30 l of radiolabeled probe solution and heated to 70′ C. for 10 minutes. The tube is slowly cooled to 37° C. and allowed to incubate overnight. Without removing the tube from the 37° C. water bath, 2 l of 10×reverse-transcriptase buffer (500 mM Tris-HCl, pH 7.5, 400 mM KCl, 30 mM MgCl2), 1 l 5 mg/ml bovine serum albumin, 5 l 100 mM dithiothreitol, 5 l 10×dNTPs (10 mM of each dNTP in H2O), 3 l H 20, 2 l RNasin (80 units), and 2 l reverse transcriptase (400 units) are added and the reaction is incubated at 37° C. for 30 minutes. To stop the reaction, 5 l of 3 M sodium acetate, pH 5, and 150 l absolute ethanol are added. The tube is left at −20° C. for 30 minutes, the precipitate is collected by centrifugation, washed with 80% ethanol and allowed to air-dry. The precipitate is resuspended in 10-20 l of loading dye (90% formamide, 0.05% bromophenol blue, 0.05% xylene cyanol, 1 mM EDTA) and the extension products are separated on a 6% sequencing gel (Maniatis, T. et al., supra). Extension products are visualized by autoradiography.
Plant materials induced and harvested as in Examples 140 to 142 are assayed for the induction of mRNA species by the isolation of RNA and the primer extension assay as described in Example 6.
The level of mRNA is proportional to the amount of regulator applied.

COC(=O)c1cccc2nnsc12 [Methyl benzo-1,2,3-thiadiazole-7-carboxylate]
ELISA ASSAY RESULTS (ug chitinase/g tissue) ([1]; line Bam-1 (2001/BamChit), leaves harvested after seven days, water 0.066, buffer —): 3.000 ug chitinase/g tissue
ELISA ASSAY RESULTS (ug chitinase/g tissue) ([1]; line Bam-3 (2001/BamChit), seven days, water —, buffer —): 0.504 ug chitinase/g tissue
ELISA ASSAY RESULTS (ug chitinase/g tissue) ([1]; line Bam-4 (2001/BamChit), seven days, water —, buffer —): —
ELISA ASSAY RESULTS (ug chitinase/g tissue) ([1]; line Bam-8 (2001/BamChit), seven days, water —, buffer —): —
ELISA ASSAY RESULTS (ug chitinase/g tissue) ([1]; line Bam-9 (2001/BamChit), seven days, water —, buffer —): 33.885 ug chitinase/g tissue
ELISA ASSAY RESULTS (ug chitinase/g tissue) ([1]; line Bam-10 (2001/BamChit), seven days, water 0.059, buffer 0.084): 25.182 ug chitinase/g tissue
ELISA ASSAY RESULTS (ug chitinase/g tissue) ([1]; line Bam-12 (2001/BamChit), seven days, water —, buffer —): 1.349 ug chitinase/g tissue
ELISA ASSAY RESULTS (ug chitinase/g tissue) ([1]; line Bam-14 (2001/BamChit), seven days, water —, buffer —): 0.541 ug chitinase/g tissue
ELISA ASSAY RESULTS (ug chitinase/g tissue) ([1]; line Bam-15 (2001/BamChit), seven days, water —, buffer —): 3.366 ug chitinase/g tissue
ELISA ASSAY RESULTS (ug chitinase/g tissue) ([1]; line Bam-16 (2001/BamChit), seven days, water —, buffer —): 18.849 ug chitinase/g tissue
ELISA ASSAY RESULTS (ug chitinase/g tissue) ([1]; line Bam-17 (2001/BamChit), seven days, water —, buffer —): 2.997 ug chitinase/g tissue
ELISA ASSAY RESULTS (ug chitinase/g tissue) ([1]; line Bam-19 (2001/BamChit), seven days, water —, buffer —): 0.998 ug chitinase/g tissue
ELISA ASSAY RESULTS (ug chitinase/g tissue) ([1]; line Bam-21 (2001/BamChit), seven days, water —, buffer —): —
ELISA ASSAY RESULTS (ug chitinase/g tissue) ([1]; line Bam-23 (2001/BamChit), seven days, water —, buffer —): 0.782 ug chitinase/g tissue
ELISA ASSAY RESULTS (ug chitinase/g tissue) ([1]; line Bam-24 (2001/BamChit), seven days, water —, buffer —): 0.88 ug chitinase/g tissue
ELISA ASSAY RESULTS (ug chitinase/g tissue) ([1]; line Bam-25 (2001/BamChit), seven days, water —, buffer —): 18.145 ug chitinase/g tissue
ELISA ASSAY RESULTS (ug chitinase/g tissue) ([1]; line Bam-26 (2001/BamChit), seven days, water —, buffer —): 0.676 ug chitinase/g tissue
ELISA ASSAY RESULTS (ug chitinase/g tissue) ([1]; line Nco-2 (2001/NcoChit), seven days, water —, buffer —): —
ELISA ASSAY RESULTS (ug chitinase/g tissue) ([1]; line Nco-3 (2001/NcoChit), seven days, water —, buffer —): —
ELISA ASSAY RESULTS (ug chitinase/g tissue) ([1]; line Nco-5 (2001/NcoChit), seven days, water —, buffer —): —
ELISA ASSAY RESULTS (ug chitinase/g tissue) ([1]; line Nco-8 (2001/NcoChit), seven days, water —, buffer —): —
ELISA ASSAY RESULTS (ug chitinase/g tissue) ([1]; line Nco-9 (2001/NcoChit), seven days, water —, buffer —): —
ELISA ASSAY RESULTS (ug chitinase/g tissue) ([1]; line Nco-10 (2001/NcoChit), seven days, water —, buffer —): 0.047 ug chitinase/g tissue
ELISA ASSAY RESULTS (ug chitinase/g tissue) ([1]; line Nco-11 (2001/NcoChit), seven days, water —, buffer —): —
ELISA ASSAY RESULTS (ug chitinase/g tissue) ([1]; line Nco-15 (2001/NcoChit), seven days, water —, buffer —): —
ELISA ASSAY RESULTS (ug chitinase/g tissue) ([1]; line Nco-16 (2001/NcoChit), seven days, water 0.555, buffer 0.566): 0.784 ug chitinase/g tissue
ELISA ASSAY RESULTS (ug chitinase/g tissue) ([1]; line Nco-17 (2001/NcoChit), seven days, water —, buffer —): —
ELISA ASSAY RESULTS (ug chitinase/g tissue) ([1]; line Sal-2 (2001/SalChit), seven days, water —, buffer —): 0.117 ug chitinase/g tissue
ELISA ASSAY RESULTS (ug chitinase/g tissue) ([1]; line Sal-3 (2001/SalChit), seven days, water —, buffer —): 0.060 ug chitinase/g tissue
ELISA ASSAY RESULTS (ug chitinase/g tissue) ([1]; line Sal-4 (2001/SalChit), seven days, water —, buffer —): 0.537 ug chitinase/g tissue
ELISA ASSAY RESULTS (ug chitinase/g tissue) ([1]; line Sal-5 (2001/SalChit), seven days, water —, buffer —): 0.229 ug chitinase/g tissue
ELISA ASSAY RESULTS (ug chitinase/g tissue) ([1]; line Sal-7 (2001/SalChit), seven days, water —, buffer —): 0.377 ug chitinase/g tissue
ELISA ASSAY RESULTS (ug chitinase/g tissue) ([1]; line Sal-8 (2001/SalChit), seven days, water —, buffer —): —
ELISA ASSAY RESULTS (ug chitinase/g tissue) ([1]; line Sal-9 (2001/SalChit), seven days, water —, buffer —): 0.553 ug chitinase/g tissue
ELISA ASSAY RESULTS (ug chitinase/g tissue) ([1]; line Sal-11 (2001/SalChit), seven days, water —, buffer —): —
ELISA ASSAY RESULTS (ug chitinase/g tissue) ([1]; line Sal-12 (2001/SalChit), seven days, water —, buffer —): —
ELISA ASSAY RESULTS (ug chitinase/g tissue) ([1]; line Sal-13 (2001/SalChit), seven days, water —, buffer —): —
ELISA ASSAY RESULTS (ug chitinase/g tissue) ([1]; line Sal-14 (2001/SalChit), seven days, water —, buffer —): —
ELISA ASSAY RESULTS (ug chitinase/g tissue) ([1]; line Sal-15 (2001/SalChit), seven days, water —, buffer —): 0.038 ug chitinase/g tissue
level of mRNA of the chimeric gene (GUS, AHAS or BT primer), primer extension assay [2]: elevated levels of mRNA
